# Source: US12383512B2, “Cannabidiol-type cannabinoid compound” (Jazz Pharmaceuticals Research UK LImited, priority 2019, dated 2025)
# Where two headings read alike, the source gives them in different places.
# Key:
# [1] = system: tonic hind limb extensor seizure following corneally delivered electroshock in mice; experiment: Supramaximal electroshock seizure (MES) test in the mouse; format: in vivo
# Description: The MES test is a very stringent model in which mice receive a predetermined high-level electrical stimulus of sufficient intensity to reliably produce tonic hindlimb extensor seizures in 100% of control animals. As such the MES test is a rigorous evaluation of anticonvulsant activity (Swinyard, 1985).
# Animals were dosed i.p. according to treatment group. […]
# In addition, a dose of 100 mg/kg CBD was given at 10 ml/kg i.p. at 120 minutes pre-treatment time to assess the effect of the drug over a longer time course.
# The positive control valproate was used at 250 mg/kg (10 ml/kg i.p. 30 min pre-treatment time).
# Induction of seizure is measured as an all-or-nothing effect scored as either present (+) or absent (0) for each animal.
# Data was collected by an observer unaware of the treatment for each animal and was expressed as the number of +'s or 0's for each treatment group.
# The percentage inhibition of relevant vehicle treated group (the protection relative to vehicle treated controls) was then generated.
# Significant differences between individual treatment groups and vehicle-treated groups were assessed using 2-tailed Fisher's Exact Probability test (p<0.05 considered significant).
# [2] = system: seizure threshold current for tonic hind limb extensor convulsions in mice; experiment: Maximal electroshock seizure threshold (MEST) test in the mouse; conditions: for % change from vehicle (CC50) / CC50 ± SEM: MEST test
# Description: The efficacy of 6-OH CBD was tested in a mouse model of generalised seizure, the maximal electroshock seizure threshold (MEST) test.
# In the MEST test the ability of a drug to alter the seizure threshold current required to induce hind limb tonic extensor convulsions is measured according to an “up and down” method of shock titration (Kimball et al., 1957). An increase in seizure threshold is indicative of anti-convulsant effect.
# The ability of a test compound to alter the stimulus intensity, expressed as current (mA), required to induce the presence of tonic hind limb extensor convulsions, is assessed in the MEST.
# Naïve mice were acclimatised to the procedure room in their home cages for up to 7 days, with food and water available ad libitum.
# All animals were weighed at the beginning of the study and randomly assigned to treatment groups based on a mean distribution of body weight across groups.
# The first animal within a treatment group was given a shock at the expected or estimated CC50 current. For subsequent animals, the current was lowered or raised depending on the convulsions outcome from the preceding animal.
# Data generated from each treatment group were used to calculate the CC50±SEM values for the treatment group.
# Vehicle: (5% ethanol, 5% solutol, 90% Saline) was prepared as follows: 2 mL of ethanol, 2 mL of solutol were warmed to 60° C., in 36 mL of saline (1:1:18).
# The test compound, alpha 6-OH CBD was prepared according to the method described in Example 1. 6-OH CBD was administered at 3, 10 and 30 mg/kg (i.p.) in a 1:1:18 ethanol:solutol:0.9% saline formulation.
# 6-OH CBD effects were also calculated as percentage change in CC50 from the vehicle control group.
# Significant difference between drug-treated animals and controls were assessed according to Litchfield and Wilcoxon (1949).
# [3] = Plasma and brain pharmacokinetics after single intravenous or intraperitoneal administration to the mouse; format: in vivo; conditions: for Kp: brain/plasma, other: intravenous and intraperitoneal, all IV and IP dose groups
# From the text: The objective of this study was to determine brain and plasma pharmacokinetic parameters of 6-OH CBD following a single intravenous or intraperitoneal administration of 6-OH CBD to the mouse; and to determine brain: plasma concentration ratios for 6-OH CBD.
# Ninety-nine male mice each received a single intravenous or intraperitoneal dose of 6-OH CBD, as detailed below in Table 3.
# For each formulation, 6-OH CBD was formulated at the required concentration in ethanol: Kolliphor EL (Cremophor EL): 0.9% (w/v) Saline (1:1:18, v/v/v).
# Each animal received a single intravenous administration, via a tail vein, at a nominal dose volume of 2 mL/kg or a single intraperitoneal administration at a nominal dose volume of 5 mL/kg.
# Following dosing, terminal blood samples were collected from each animal via cardiac puncture, and brains were excised, at each of the following time points: • Intravenous groups: 7, 15 and 30 minutes, 1, 2, 4, 8, 12 and 24 hours; • Intraperitoneal groups: 15 and 30 minutes, 1, 2, 4, 8, 12 and 24 hours.
# Blood was collected into tubes containing lithium heparin anticoagulant and centrifuged to prepare plasma. Brain samples were frozen on dry ice, then weighed and stored deep frozen prior to bioanalysis. The remaining carcasses were discarded. Plasma was stabilised with an equal volume of ascorbic acid solution, then stored deep frozen prior to bioanalysis.
# Stabilised plasma samples were analysed to determine the concentrations of 6-OH CBD, using qualified LC-MS/MS methods. The results of these analyses were evaluated to determine non-compartmental pharmacokinetic parameters.
# The following parameters were determined: • Cmax Maximum concentration observed. • Tmax Time of maximum observed concentration. • AUC0-t Area under the concentration-time curve from hour 0 to the last quantifiable concentration, estimated by the linear trapezoidal rule. • AUC0-24 Area under the concentration-time curve from hour 0 to hour 24, estimated using the linear trapezoidal rule. • t1/2 Elimination half-life, determined as In(2)/λz. • Cl Clearance, calculated (for intravenous doses only) as Dose/AUC0-inf. • Vss Volume of distribution, based on the terminal elimination phase, calculated (for intravenous doses only) as Cl/λz. • Fabs Absolute bioavailability of the intraperitoneal dose.
# [4] = 30 mg/kg i.p., pre-treatment time 60 min
# [5] = 3 mg/kg i.p., pre-treatment time 30 min
# [6] = 10 mg/kg i.p., pre-treatment time 15 min
structure (smiles),measurement,setting,value
"C=C(C)[C@@H]1CC(O)C(C)=C[C@H]1c1c(O)cc(CCCCC)cc1O (stereo partly drawn) [6-OH CBD, Alpha 6-hydroxy cannabidiol]",% change from vehicle,"[1]; 3 mg/kg i.p., pre-treatment time 60 min",0%
same,seizure outcome in words,"[1]; 3 mg/kg i.p., text says 120 minutes before the test",ineffective
same,% change from vehicle,[1]; [4],100%
same,seizure outcome in words,"[1]; 30 mg/kg i.p., text says 120 minutes before the test",enabled all mice within the group to withstand seizures
same,seizure outcome in words,[1]; 100 mg/kg given 120 minutes before,statistically significant reduction of seizures
same,% change from vehicle,"[1]; 100 mg/kg i.p., pre-treatment time 60 min",100%
same,% change from vehicle,"[1]; 100 mg/kg i.p., pre-treatment time 120 min",100%
same,seizure outcome in words,"[1]; 100 mg/kg i.p., text says 120 minutes before the test",enabled all mice within the group to withstand seizures
same,% change from vehicle,"[1]; 200 mg/kg i.p., pre-treatment time 60 min",100%
same,seizure outcome in words,"[1]; 200 mg/kg i.p., text says 120 minutes before the test",enabled all mice within the group to withstand seizures
same,effect on MEST in words,"[2]; 3, 10 and 30 mg/kg i.p.",dose-related increase in MEST
same,% change from vehicle (CC50),[2]; [5],25%
same,CC50 ± SEM,[2]; [5],30.0 ± 1.1 mA
same,% change from vehicle (CC50),[2]; [6],135%
same,CC50 ± SEM,[2]; [6],56.5 ± 2.1 mA
same,% change from vehicle (CC50),[2]; [4],327%
same,CC50 ± SEM,[2]; [4],102.5 ± 2.2 mA
same,increase in brain AUC0-24 for a 10-fold increase in dose level,"[3]; brain, IP 3 to 30 mg/kg",32.6 fold
same,increase in brain Cmax for a 10-fold increase in dose level,"[3]; brain, IP 3 to 30 mg/kg",15.8 fold
same,Cmax,"[3]; male, brain, IP 3 mg/kg",851 ng/mL
same,Cmax,"[3]; male, brain, IP 10 mg/kg",3680 ng/mL
same,Cmax,"[3]; male, brain, IP 30 mg/kg",13500 ng/mL
same,Cmax,"[3]; male, brain, IV 1 mg/kg",1580 ng/mL
same,AUC(0-t),"[3]; male, brain, ip, 3 mg/kg, brain, IP 3 mg/kg, read-out: AUC0-24",768 ng·h/mL
same,AUC(0-t),"[3]; male, brain, ip, 3 mg/kg, brain, IP 3 mg/kg, read-out: AUC0-t",756 ng·h/mL
same,Tmax,"[3]; male, brain, ip, 3 mg/kg, brain, IP 3 mg/kg, read-out: Tmax (converted)",30 min
same,half-life,"[3]; male, brain, ip, 3 mg/kg, brain, IP 3 mg/kg, read-out: t1/2 (converted)",34.1 min
same,AUC(0-t),"[3]; male, brain, ip, 10 mg/kg, brain, IP 10 mg/kg, read-out: AUC0-24",3940 ng·h/mL
same,AUC(0-t),"[3]; male, brain, ip, 10 mg/kg, brain, IP 10 mg/kg, read-out: AUC0-t",3750 ng·h/mL
same,Tmax,"[3]; male, brain, ip, 10 mg/kg, brain, IP 10 mg/kg, read-out: Tmax (converted)",15 min
same,half-life,"[3]; male, brain, ip, 10 mg/kg, brain, IP 10 mg/kg, read-out: t1/2 (converted)",42.4 min
same,AUC(0-t),"[3]; male, brain, ip, 30 mg/kg, brain, IP 30 mg/kg, read-out: AUC0-24",25000 ng·h/mL
same,AUC(0-t),"[3]; male, brain, ip, 30 mg/kg, brain, IP 30 mg/kg, read-out: AUC0-t",25000 ng·h/mL
same,Tmax,"[3]; male, brain, ip, 30 mg/kg, brain, IP 30 mg/kg, read-out: Tmax (converted)",60 min
same,half-life,"[3]; male, brain, ip, 30 mg/kg, brain, IP 30 mg/kg, read-out: t1/2 (converted)",55.1 min
same,half-life,"[3]; male, brain, ip, brain, IP administration 3-30 mg/kg, read-out: t1/2 range",34.1 to 55.1 min
same,Tmax,"[3]; male, brain, ip, brain, after IP dosing (3-30 mg/kg), read-out: Tmax range",15 to 60 min
same,AUC(0-t),"[3]; male, brain, iv, 1 mg/kg, brain, IV 1 mg/kg, read-out: AUC0-24",690 ng·h/mL
same,AUC(0-t),"[3]; male, brain, iv, 1 mg/kg, brain, IV 1 mg/kg, read-out: AUC0-t",679 ng·h/mL
same,Tmax,"[3]; male, brain, iv, 1 mg/kg, brain, IV 1 mg/kg, read-out: Tmax (converted)",7.02 min
same,half-life,"[3]; male, brain, iv, 1 mg/kg, brain, IV 1 mg/kg, read-out: t1/2 (converted)",18.7 min
same,Kp,"[3]; male, read-out: Brain: plasma ratio for AUC0-24, range",1.41 to 2.01
same,Kp,"[3]; male, read-out: Brain: plasma ratio for Cmax, range",1.23 to 2.03
same,Cmax,"[3]; male, plasma, IP 3 mg/kg",658 ng/mL
same,Cmax,"[3]; male, plasma, IP 10 mg/kg",2550 ng/mL
same,Cmax,"[3]; male, plasma, IP 30 mg/kg",11000 ng/mL
same,Cmax,"[3]; male, plasma, IV 1 mg/kg",775 ng/mL
same,clearance,"[3]; male, plasma, IV 1 mg/kg",48.7 mL/min/kg
same,Vd,"[3]; male, plasma, IV 1 mg/kg, read-out: Vss",1.9 L/kg
same,AUC(0-t),"[3]; male, plasma, ip, 3 mg/kg, plasma, IP 3 mg/kg, read-out: AUC0-24",535 ng·h/mL
same,AUC(0-t),"[3]; male, plasma, ip, 3 mg/kg, plasma, IP 3 mg/kg, read-out: AUC0-t",533 ng·h/mL
same,Tmax,"[3]; male, plasma, ip, 3 mg/kg, plasma, IP 3 mg/kg, read-out: Tmax (converted)",15 min
same,half-life,"[3]; male, plasma, ip, 3 mg/kg, plasma, IP 3 mg/kg, read-out: t1/2 (converted)",59.6 min
same,AUC(0-t),"[3]; male, plasma, ip, 10 mg/kg, plasma, IP 10 mg/kg, read-out: AUC0-24",2600 ng·h/mL
same,AUC(0-t),"[3]; male, plasma, ip, 10 mg/kg, plasma, IP 10 mg/kg, read-out: AUC0-t",2590 ng·h/mL
same,Tmax,"[3]; male, plasma, ip, 10 mg/kg, plasma, IP 10 mg/kg, read-out: Tmax (converted)",15 min
same,half-life,"[3]; male, plasma, ip, 10 mg/kg, plasma, IP 10 mg/kg, read-out: t1/2 (converted)",64.8 min
same,AUC(0-t),"[3]; male, plasma, ip, 30 mg/kg, plasma, IP 30 mg/kg, read-out: AUC0-24",17700 ng·h/mL
same,AUC(0-t),"[3]; male, plasma, ip, 30 mg/kg, plasma, IP 30 mg/kg, read-out: AUC0-t",17700 ng·h/mL
same,Tmax,"[3]; male, plasma, ip, 30 mg/kg, plasma, IP 30 mg/kg, read-out: Tmax (converted)",15 min
same,half-life,"[3]; male, plasma, ip, 30 mg/kg, plasma, IP 30 mg/kg, read-out: t1/2 (converted)",57.5 min
same,Tmax,"[3]; male, plasma, ip, 30 mg/kg, plasma, IP 3, 10 or 30 mg/kg (each dose level), read-out: Tmax (converted)",15 min
same,half-life,"[3]; male, plasma, ip, 30 mg/kg, plasma, IP 3, 10 or 30 mg/kg, read-out: t1/2 range across dose levels",59.6 to 64.8 min
same,AUC(0-t),"[3]; male, plasma, iv, 1 mg/kg, plasma, IV 1 mg/kg, read-out: AUC0-24",343 ng·h/mL
same,AUC(0-t),"[3]; male, plasma, iv, 1 mg/kg, plasma, IV 1 mg/kg, read-out: AUC0-t",342 ng·h/mL
same,Tmax,"[3]; male, plasma, iv, 1 mg/kg, plasma, IV 1 mg/kg, read-out: Tmax (converted)",7.02 min
same,half-life,"[3]; male, plasma, iv, 1 mg/kg, plasma, IV 1 mg/kg, read-out: t1/2 (converted)",27.1 min
same,Fabs,"[3]; plasma, IP 3 mg/kg",52.1%
same,Fabs,"[3]; plasma, IP 10 mg/kg",75.8%
same,Fabs,"[3]; plasma, IP 30 mg/kg",173%
same,increase in plasma AUC0-24 for a 10-fold increase in dose level,"[3]; plasma, IP 3 to 30 mg/kg",33.2 fold
same,increase in plasma Cmax for a 10-fold increase in dose level,"[3]; plasma, IP 3 to 30 mg/kg",16.7 fold
"CN1C(=O)CN=C(c2ccccc2)c2cc(Cl)ccc21 [Diazepam, diazepam, reference compound]",% change from vehicle (CC50),"[2]; 2.5 mg/kg i.p., pre-treatment time 30 min",103%
"CCCC(CCC)C(=O)O [Valproate, valproate, reference compound]",% change from vehicle,"[1]; 250 mg/kg i.p., pre-treatment time 30 min",100%
